Where two headings read alike, the source gives them in different places. No end group written: not given here.
What was measured:
[1] = system: lymphoblast RPMI 7666 cells; test: cells
Experimental: (§1) To evaluate the cell lysis activity of CHM1, a cytotoxcity assay was conducted according to the method described in Chen H. et al., Biochim. Biophys. Acta 1336:171–179, 1997 and Wang W. et al., J. Biol. Chem. 273:27438–27448, 1998.
(§2) Anchorage-independent normal cells such as red blood cells and lymphoblast RPMI 7666 cells, and leukemia cell lines such as CCRF-CEM, HL-60, and Jurkat, K-562 cells were respectively maintained in RMPI-1640 culture media containing 10% FBS, 100 unit/ml penicillin G, and 100 μg/ml streptomycin. Cells of each type were seeded at 1×10^5/ml into a 25 cm^2 flask (Falcon) and cultured at 37° C. in the presence of 5% CO2 for two days. The cells were then centrifuged at 1000 rpm for 5 min. The resultant pellet was washed twice with the just-mentioned culture medium, resuspended in an RMPI-1640 medium containing 0.5% FBS, and cultured overnight.
(§3) Each of the above-prepared cell suspensions was adjusted so that it contained 1×10^5 cells/ml before being transferred into 9 wells of a 96-well plate (90 μl/well). The suspension in each well was mixed with 10 ul of a culture medium containing CHM1 freshly prepared from a […] stock solution so that the final concentrations in the 9 wells were 0, 1, 5, 10, 15, 20, 30, 50, and 100 μM, respectively. Triplicates for each well were set up. After incubating for 24 hours, a microtetrazolium (MTT)-based colorimetric assay was conducted. It is known that MTT can be metabolized by mitochondrial dehydrogenases in metabolically active cells to form a formazan salt, which has a strong absorption at 570 nm. To conduct the assay, 20 μl of a solution containing 5 mg/ml MTT (Boehringer Mannheim) was added to each of the wells mentioned above and a well containing 100 μl of PBS. The latter was used as a blank control. After incubating for 4 hours, 100 μl of a solution containing 10% SDS and […] HCl was added to each well. The plate was then incubated at 37° C. overnight. The absorbance at 570 nm of the mixture in each well was measured using a Bio-Rad model 450 microtiter plate reader. An average cell survival rate of each triplicate was determined based on the corresponding ΔA570nm relative to that of the well containing 0 μM CHM1. The survival rates thus obtained were plotted against corresponding CHM1 concentrations to form a cell survival curve and derive the IC50. Using the same procedure, also determined were the IC50s of other lytic polypeptides, such as cecropin B (CB), cecropin B1 (CB1), Melittin, and Magainin II, and cancer chemotherapeutic agents, such as doxorubicin (DOX), vincristine (VCR), methotrexate (MTX), 5-fluorouracil (5-Fu), cytarabine (Ara-C), 6-mercaptopurine (6-MP). At least three independent experiments were conducted for each of the polypeptides and agents.

HL-60 = test: cells
Experimental: as §1, §2, §3

CCRF-SB = test: MTT-based cytotoxicity assay, CCRF-SB cancer cells; assay type: cell-based; settings: Homo sapiens, Table 2, 24 hours incubation
Experimental: as §1, §3

K-562 = test: cells
Experimental: as §1, §2, §3

Jurkat = test: cells
Experimental: as §1, §2, §3

CCRF-CEM = test: cells
Experimental: as §1, §2, §3

[2] = system: stomach carcinoma (AGS) cells; test: cells
Experimental: as §1
(§4) Anchorage-dependent cells such as tissue cells (3T3 cells) or stomach carcinoma (AGS) cells were seeded at 1×10^4 cells/ml into a 25-cm^2 flask containing D-MEM medium supplemented with 10% FBS, 100 unit/ml penicillin G, and 100 μg/ml streptomycin. Cells were grown to about 80% confluence before being trypsinized. The trypsinized cells were resuspended in a D-MEM medium containing 0.5% FBS.
as §3

tissue cells (3T3 cells) = test: cells
Experimental: as §1, §4, §3

red blood cells (RBCs) = test: Hemolysis of red blood cells; assay type: cell-based; settings: 200 μM
Experimental: as §2
Effects of CHM1, melittin, CB, CB1 and doxorubicin on red blood cells (RBCs) were also examined. […] In fact, about 15% of RBCs lysed after being treated with CHM1 (200 μM). In contrast, about 100%, 57%, 55%, and 20% of RBCs lysed after being treated by melittin, CB, CB1, and doxorubicin, respectively, at the same concentration.

[3] = 24 h, read-out: IC50, Lymphoblasts RPMI 7666
[4] = Homo sapiens, HL-60, 24 h, read-out: IC50, Cancer Cells HL-60
[5] = read-out: IC50, Leukemia cells K-562, 24 hours incubation, MTT
[6] = read-out: IC50, Leukemia cells Jurkat, 24 hours incubation, MTT
[7] = read-out: IC50, Leukemia cells HL-60, Table 1, 24 hours incubation, MTT
[8] = read-out: IC50, Leukemia cells CCRF-CEM, 24 hours incubation, MTT
[9] = read-out: IC50, Stomach Carcinoma AGS, 24 hours incubation, MTT
[10] = read-out: IC50, Normal cells Tissue cells (3T3), 24 hours incubation, MTT
[11] = read-out: IC50, Normal cells Lymphoblast (RPMI7666), Table 1, 24 hours incubation, MTT

`O=c1[nH]cc(F)c(=O)[nH]1` [5-FU, 5-fluorouracil] was tested. Which IC50 [1, 3] did it give?
The IC50 was 1.15 ± 0.4 µM.

What about the IC50 (HL-60; [4]) of the same compound?
The IC50 was 7.6 ± 10.5 µM.

And the IC50 (CCRF-SB)?
Its IC50 is 123 ± 30.7 µM.

Which IC50 [1, 3] does the source give for `Sc1ncnc2nc[nH]c12` [6-MP, 6-mercaptopurine] here?
Its IC50 is 1.24 ± 0.3 µM.

And the IC50 (HL-60; [4])?
Its IC50 is 0.43 ± 0.05 µM.

What about the IC50 (CCRF-SB) of the same compound?
The IC50 was 0.44 ± 0.01 µM.

What does the source list for `Nc1ccn([C@@H]2O[C@H](CO)[C@@H](O)[C@@H]2O)c(=O)n1` [Ara-C, cytarabine]?
IC50 [1, 3]: 0.3 ± 0.1 µM; IC50 (HL-60; [4]): 0.08 ± 0.02 µM; IC50 (CCRF-SB): 0.1 ± 0.01 µM

Which IC50 (K-562; Homo sapiens, K562, 24 h, read-out: IC50, Leukemia cells K-562) does the source give for `COc1cccc2c1C(=O)c1c(O)c3c(c(O)c1C2=O)C[C@@](O)(C(=O)CO)C[C@@H]3O[C@H]1C[C@H](N)[C@H](O)[C@H](C)O1` [Doxorubicin, doxorubicin] here?
Its IC50 is greater than 10 µM.

And the IC50 (Jurkat; Homo sapiens, Jurkat, 24 h, read-out: IC50, Leukemia cells Jurkat)?
The IC50 was 0.4 ± 0.1 µM.

What about the IC50 [1, 3] of the same compound?
Its IC50 is 1.86 ± 0.1 µM.

What about the IC50 ([1]; 24 h, read-out: IC50, Normal cells Lymphoblast (RPMI7666)) of the same compound?
The IC50 was 1.9 ± 0.1 µM.

And the IC50 (HL-60; [4])?
The IC50 was 0.19 ± 0.01 µM.

And the IC50 (HL-60; Homo sapiens, HL-60, 24 h, read-out: IC50, Leukemia cells HL-60)?
Its IC50 is 0.19 ± 0.01 µM.

And the IC50 (CCRF-CEM; Homo sapiens, CCRF-CEM, 24 h, read-out: IC50, Leukemia cells CCRF-CEM)?
The IC50 was 0.4 ± 0.1 µM.

What about the IC50 ([2]; Homo sapiens, AGS, 24 h, read-out: IC50, Stomach Carcinoma AGS) of the same compound?
Its IC50 is 4.1 ± 0.4 µM.

What about the IC50 (tissue cells (3T3 cells); Mus musculus, NIH3T3, 24 h, read-out: IC50, Normal cells Tissue cells (3T3)) of the same compound?
The IC50 was 2 ± 0.7 µM.

And the RBCs lysed (red blood cells (RBCs))?
Its RBCs lysed is roughly 20%.

What about the IC50 (CCRF-SB) of the same compound?
The IC50 was 0.46 ± 0.07 µM.

Which IC50 [1, 3] does the source give for `CN(Cc1cnc2nc(N)nc(N)c2n1)c1ccc(C(=O)N[C@@H](CCC(=O)O)C(=O)O)cc1` [MTX, methotrexate] here?
Its IC50 is 0.132 ± 0.04 µM.

And the IC50 (HL-60; [4])?
Its IC50 is 0.018 ± 0.01 µM.

And the IC50 (CCRF-SB)?
Its IC50 is 0.017 ± 0.01 µM.

Which IC50 (K-562; [5]) does the source give for `CC[C@H](C)[C@H](NC(=O)CN)C(=O)NCC(=O)N[C@@H](C)C(=O)N[C@H](C(=O)N[C@@H](CC(C)C)C(=O)N[C@@H](CCCCN)C(=O)N[C@H](C(=O)N[C@@H](CC(C)C)C(=O)N[C@H](C(=O)N[C@H](C(=O)NCC(=O)N[C@@H](CC(C)C)C(=O)N1CCC[C@H]1C(=O)N[C@@H](C)C(=O)N[C@@H](CC(C)C)C(=O)N[C@H](C(=O)N[C@@H](CO)C(=O)N[C@@H](Cc1c[nH]c2ccccc12)C(=O)N[C@H](C(=O)N[C@@H](CCCCN)C(=O)N[C@@H](CCCNC(=N)N)C(=O)N[C@@H](CCCCN)C(=O)N[C@@H](CCCNC(=N)N)C(=O)N[C@@H](CCC(N)=O)C(=O)N[C@@H](CCC(N)=O)C(N)=O)[C@@H](C)CC)[C@@H](C)CC)[C@@H](C)O)[C@@H](C)O)C(C)C)C(C)C` [Melittin] here?
The IC50 was 3.2 ± 0.3 µM.

What about the IC50 (Jurkat; [6]) of the same compound?
The IC50 was 2.5 ± 0.1 µM.

And the IC50 (HL-60; [7])?
The IC50 was 0.8 ± 0.02 µM.

And the IC50 (CCRF-CEM; [8])?
The IC50 was 0.5 ± 0.02 µM.

What about the IC50 [2, 9] of the same compound?
The IC50 was 0.6 ± 0.02 µM.

And the IC50 (tissue cells (3T3 cells); [10])?
The IC50 was 6 ± 0.03 µM.

And the RBCs lysed (red blood cells (RBCs))?
The RBCs lysed was “about 100%”.

`CC[C@]1(O)C[C@H]2CN(CCc3c([nH]c4ccccc34)[C@@](C(=O)OC)(c3cc4c(cc3OC)N(C=O)[C@H]3[C@@](O)(C(=O)OC)[C@H](OC(C)=O)[C@]5(CC)C=CCN6CC[C@]43[C@@H]65)C2)C1` [VCR, vincristine] was tested. Which IC50 [1, 3] did it give?
Its IC50 is 0.021 µM.

What about the IC50 (HL-60; [4]) of the same compound?
Its IC50 is 0.034 ± 0.01 µM.

And the IC50 (CCRF-SB)?
The IC50 was 0.015 ± 0.01 µM.

What does the source list for GIGKFLHSAKKFGKAFVGEIMNS [Magainin II]?
IC50 (K-562; 24 h): > 50 µM; IC50 (Jurkat; 24 h): 44 ± 2.4 µM; IC50 (HL-60; 24 h): 38.3 ± 3.2 µM; IC50 (CCRF-CEM; 24 h): 32.9 ± 0.9 µM; IC50 ([2]; 24 h): 28.7 ± 5 µM; IC50 (tissue cells (3T3 cells); 24 h): > 50 µM

Which IC50 (K-562; 24 h) does the source give for “KWKVFKKIEKKWKVFKKIEKAGPKWKVFKKIEK [CHM1]” here?
Its IC50 is 8.5 ± 0.6 µM.

What about the IC50 (Jurkat; 24 h) of the same compound?
Its IC50 is 10.1 ± 1.2 µM.

What about the IC50 [1, 11] of the same compound?
The IC50 was greater than 100 µM.

What about the “effect on normal lymphoblasts (in words)” value ([1]; summary of Table 1) of the same compound?
The value was “little effect”.

And the IC50 (HL-60; 24 h)?
The IC50 was 6.7 ± 1.1 µM.

What about the IC50 (CCRF-CEM; 24 h) of the same compound?
The IC50 was 4.4 ± 0.3 µM.

And the IC50 ([2]; 24 h)?
The IC50 was 5.6 ± 0.5 µM.

And the IC50 (tissue cells (3T3 cells); 24 h)?
Its IC50 is greater than 50 µM.

What about the “effect on normal tissue cells (in words)” value (tissue cells (3T3 cells); summary of Table 1) of the same compound?
Its value is “little effect”.

For “KWKVFKKIEKMGRNIRNGIVKAGPAIAVLGEAKAL-NH2 [CB, cecropin B]”, which IC50 (K-562; 24 h) is on record?
The IC50 was greater than 50 µM.

What about the IC50 (Jurkat; 24 h) of the same compound?
Its IC50 is 31.5 ± 3 µM.

What about the IC50 [1, 11] of the same compound?
The IC50 was greater than 200 µM.

What about the IC50 (HL-60; 24 h) of the same compound?
Its IC50 is 18.5 ± 1.7 µM.

And the IC50 (CCRF-CEM; 24 h)?
The IC50 was 11.7 ± 1.3 µM.

What about the IC50 ([2]; 24 h) of the same compound?
The IC50 was greater than 50 µM.

And the IC50 (tissue cells (3T3 cells); 24 h)?
The IC50 was greater than 50 µM.

With cecropin B1 [CB1] as the compound, how does the IC50 (K-562; [5]) read?
The IC50 was 15.6 ± 1.8 µM.

And the IC50 (Jurkat; [6])?
Its IC50 is 4 ± 0.4 µM.

And the IC50 [1, 11]?
The IC50 was greater than 200 µM.

What about the IC50 (HL-60; [7]) of the same compound?
Its IC50 is 8.1 ± 0.9 µM.

What about the IC50 (CCRF-CEM; [8]) of the same compound?
Its IC50 is 4.7 ± 0.2 µM.

What about the IC50 [2, 9] of the same compound?
The IC50 was 7.1 ± 1.3 µM.

And the IC50 (tissue cells (3T3 cells); [10])?
Its IC50 is greater than 50 µM.
